From patent publication US20120225909A1, “INDAZOLE ANALOG” (priority 2009, published 2012)

How the values were obtained:
[1] = target: T1, human β2-adrenergic receptor (Homo sapiens, UniProt P07550); assay: Test Case 3-B: human β2-adrenergic receptor agonist activity; format: cell-based; details: for Emax: read-out: β2 receptor I.A.; for β2 receptor I.A.: Test Case 3-B, maximum response of isoproterenol = 100%
T1 construct: expressed in transfected cells; host or cells: CHO (Chinese hamster ovary) cells, pcDNA3
Procedure: Measurement of Human β2-Adrenergic Receptor Agonist Activity
The human β2-adrenergic receptor agonist activity is measured by the same method as in Test Case 1-B using CHO (Chinese hamster ovary) cells transfected by a human β2 gene inserted in pcDNA3 (Invitrogen).

[2] = system: Male C57BL/6 Cr mice; assay: Test Case 10: mouse piloerection test; format: in vivo
Procedure: Male C57BL/6 Cr mice (Japan SLC) are used. The dissolved compound is administered rapidly via a caudal vein. The animal is placed on the observation stand 5, 15, 30, and 60 minutes after administration, and the state of piloerection is observed. The state of piloerection is evaluated by the following 7-level scoring system according to the examples by the method of Irwin (Psychopharmacologia 1968, 13; 222-257).
Scoring system: “Score 0”: No piloerection at all; “Score 1”: Slight piloerection (piloerection on part of the body such as the back or neck); “Score 2”: Moderate piloerection (piloerection over the entire body); “Score 3”: Marked piloerection (piloerection over the entire body, conspicuous to the extent that the skin can be seen).
“Score 0.5” is between “Score 0” and “Score 1” “Score 1.5” is between […]. “Score 2.5” is between “Score 2” and “Score 3.”

[3] = target: T2, human β3-adrenergic receptor (Homo sapiens, UniProt P13945); assay: Test Case 1-B: human β3-adrenergic receptor agonist activity (cAMP-Screen, 96-well); format: cell-based; details: for Emax: 0.5 h, read-out: β3 receptor I.A.; for EC50 / β3 receptor I.A.: Test Case 1-B; for EC50: CHO cells, cAMP; for β3 receptor I.A.: maximum response of isoproterenol = 100%
T2 construct: A full-length human β3 gene is obtained from a human genomic library (made by Clontech) using this as the probe; expressed in transfected cells; host or cells: CHO (Chinese hamster ovary) cells, pcDNA3
Summary of the method: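 CHO cells stably transfected with full-length human β3 gene, serum-starved 15 min, then exposed to serially diluted compound in Ham's F-12 with 100 mmol/L HEPES and 1 mmol/L IBMX (diluent concentrations) for 30 min. Cells lysed 30 min at 37 °C; cAMP quantified by cAMP-Screen immunoassay.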

[4] = target: T3, human β1-adrenergic receptor (Homo sapiens, UniProt P08588); assay: Test Case 2-B: human β1-adrenergic receptor agonist activity; format: cell-based; details: for Emax: read-out: β1 receptor I.A.; for β1 receptor I.A.: Test Case 2-B, maximum response of isoproterenol = 100%
T3 construct: expressed in transfected cells; host or cells: CHO (Chinese hamster ovary) cells, pcDNA3
Procedure: Measurement of Human β1-Adrenergic Receptor Agonist Activity
The human β1-adrenergic receptor agonist activity is measured by the same method as in Test Case 1-B using CHO (Chinese hamster ovary) cells transfected by a human β1 gene inserted in pcDNA3 (Invitrogen).

[5] = system: pentobarbital-anesthetized rats; assay: Test Case 9: effects on the blood pressure and heart rate in pentobarbital-anesthetized rats; format: in vivo, rat
Procedure: Effects on the blood pressure and heart rate in pentobarbital-anesthetized rats
The blood pressure and heart rate of rats under pentobarbital anesthesia are measured, and the effects of rapid intravenous administration of the test compound on the blood pressure and heart rate can be studied. After anesthetizing male SD rats (Japan SLC) by intraperitoneal administration of 50 mg/kg of pentobarbital sodium (Tokyo Chemical Industry Co., Ltd.), 25 mg/kg of pentobarbital sodium is administered subcutaneously as maintenance anesthesia. The left femoral vein is exposed and stripped, and a SP10 polyethylene tube filled with saline (connected to a three-way stopcock via a ¼ venous needle) is inserted and left in place in the vein.
The inside of the left thigh is cut, and the femoral artery is exposed and stripped. A polyethylene tube filled with heparinized physiological saline solution (SP31, connected to a three-way stopcock via a Terumo injection needle 22G) is inserted and connected to a pressure transducer. The blood pressure is measured from the pressure transducer via a strain pressure amplifier (AP-641G, Nihon Kohden). The heart rate is measured with the pulse wave of the blood pressure as a trigger via a heart rate counter (AT-601G, Nihon Kohden). The blood pressure, mean blood pressure, and heart rate are output to a recorder and recorded. Furthermore, the mean blood pressure is recorded via the strain pressure amplifier (AP-641G) using the formula {[…]}.
Specifically, 3 mg/mL of test compound is administered rapidly at a volume of 1 mL/kg. The relative value (%) of the values at each point in time versus the mean blood pressure and heart rate before beginning administration are determined for each individual, and the mean±standard deviation of the relative value (%) at the time of the maximum change in each parameter is determined.

[6] = target: T4, human α1A-adrenergic receptor (Homo sapiens, UniProt P35348); assay: Test Case 4-A: human α1A-adrenergic receptor agonist activity (HEK293, Ca flux, Fura-2); format: cell-based; parameters: expressed in transfected cells; host or cells: HEK293 cells, pcDNA3.1; details: for Emax: HEK293, read-out: α1A receptor I.A.; for α1A receptor I.A.: Test Case 4-A, maximum response of norepinephrine = 100%, Table 4
T4 sequence (P35348 1-466): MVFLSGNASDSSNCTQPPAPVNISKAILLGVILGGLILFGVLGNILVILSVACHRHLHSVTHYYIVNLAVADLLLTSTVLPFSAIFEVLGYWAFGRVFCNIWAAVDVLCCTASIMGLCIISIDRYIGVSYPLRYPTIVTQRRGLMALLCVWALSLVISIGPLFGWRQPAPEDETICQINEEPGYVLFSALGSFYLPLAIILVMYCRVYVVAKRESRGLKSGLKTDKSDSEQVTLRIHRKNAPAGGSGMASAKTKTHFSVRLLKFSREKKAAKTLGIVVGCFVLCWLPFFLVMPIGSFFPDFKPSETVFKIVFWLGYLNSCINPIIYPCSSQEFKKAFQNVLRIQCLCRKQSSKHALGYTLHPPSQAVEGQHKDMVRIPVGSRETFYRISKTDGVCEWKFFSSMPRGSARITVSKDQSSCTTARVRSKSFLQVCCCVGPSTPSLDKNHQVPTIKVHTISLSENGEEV
Summary of the method: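 Fura-2AM-loaded HEK293 cells transfected with human α1A were preincubated for 180 s. Compound (sample plate 10^−5 to 10^−12 M) was added after ~30 s of 340/380 nm excitation ratio reading (500 nm emission, 2-s intervals), followed by 270 s more reading. Ca flux is the peak height: maximum ratio after addition minus the pre-addition ratio.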

[7] = 10 mg/kg i.v., n=4, observation time 5 min, Score 0
[8] = 10 mg/kg i.v., n=4, observation time 5 min
[9] = 10 mg/kg i.v., n=4, observation time 15 min, Score 0
[10] = 10 mg/kg i.v., n=4, observation time 15 min
[11] = 10 mg/kg i.v., n=4, observation time 30 min, Score 0
[12] = 10 mg/kg i.v., n=4, observation time 30 min
[13] = 10 mg/kg i.v., n=4, observation time 60 min, Score 0
[14] = anesthetized male SD rats, 3 mg/kg intravenous over 30 seconds, maximum change, mean±standard deviation
[15] = anesthetized male SD rats, 3 mg/kg intravenous over 30 seconds, maximum change, mean±standard deviation, 3 mg/kg

T3 sequence (P08588 whole entry): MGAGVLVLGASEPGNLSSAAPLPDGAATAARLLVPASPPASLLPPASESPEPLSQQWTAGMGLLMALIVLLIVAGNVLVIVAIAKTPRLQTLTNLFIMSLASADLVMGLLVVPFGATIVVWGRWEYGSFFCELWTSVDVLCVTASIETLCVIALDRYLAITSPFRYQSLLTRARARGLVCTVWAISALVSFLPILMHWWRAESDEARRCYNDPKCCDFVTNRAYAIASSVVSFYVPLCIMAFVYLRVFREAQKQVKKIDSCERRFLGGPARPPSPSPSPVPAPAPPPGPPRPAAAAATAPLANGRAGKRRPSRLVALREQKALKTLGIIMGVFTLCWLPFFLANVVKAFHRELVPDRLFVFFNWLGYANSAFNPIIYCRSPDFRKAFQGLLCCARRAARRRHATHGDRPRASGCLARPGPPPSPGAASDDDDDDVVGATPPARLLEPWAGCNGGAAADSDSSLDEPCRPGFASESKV
T1 sequence (P07550 whole entry): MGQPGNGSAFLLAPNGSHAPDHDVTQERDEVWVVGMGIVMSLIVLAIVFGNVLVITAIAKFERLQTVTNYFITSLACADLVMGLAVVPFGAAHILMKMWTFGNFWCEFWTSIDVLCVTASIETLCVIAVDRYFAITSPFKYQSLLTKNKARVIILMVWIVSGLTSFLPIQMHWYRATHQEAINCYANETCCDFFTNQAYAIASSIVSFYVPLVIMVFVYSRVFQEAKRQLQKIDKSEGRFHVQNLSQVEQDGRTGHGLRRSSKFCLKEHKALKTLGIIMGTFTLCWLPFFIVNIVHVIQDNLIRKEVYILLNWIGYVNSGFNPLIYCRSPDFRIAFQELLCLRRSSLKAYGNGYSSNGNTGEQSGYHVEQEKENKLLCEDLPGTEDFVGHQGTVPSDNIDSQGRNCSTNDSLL
T2 sequence (P13945 whole entry): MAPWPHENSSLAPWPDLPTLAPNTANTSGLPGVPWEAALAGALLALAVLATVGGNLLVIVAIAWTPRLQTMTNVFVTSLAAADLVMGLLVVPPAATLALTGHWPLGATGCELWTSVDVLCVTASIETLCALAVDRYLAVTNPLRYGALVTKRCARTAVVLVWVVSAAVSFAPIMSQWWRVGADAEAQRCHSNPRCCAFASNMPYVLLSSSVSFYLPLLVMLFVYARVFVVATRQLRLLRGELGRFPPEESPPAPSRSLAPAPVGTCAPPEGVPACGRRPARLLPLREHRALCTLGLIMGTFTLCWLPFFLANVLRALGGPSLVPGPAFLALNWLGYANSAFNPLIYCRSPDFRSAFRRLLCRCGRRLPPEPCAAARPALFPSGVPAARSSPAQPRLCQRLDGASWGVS

Structure (SMILES)	Emax [1] [%]	number of experimental animals matching Score 0 (no piloerection) [2, 7]	number of experimental animals matching Score 0 (no piloerection) [2, 9]	number of experimental animals matching Score 0 (no piloerection) [2, 11]	number of experimental animals matching Score 0 (no piloerection) [2, 13]	Emax [3] [%]	EC50 [3] [nM]	Emax [4] [%]	increase in MBP (%) [5, 14] [%]	Emax [6] [%]	β2 receptor I.A. [1] [%]	β3 receptor I.A. [3] [%]	β1 receptor I.A. [4] [%]	α1A receptor I.A. [6] [%]	other results
COc1n[nH]c2cc(OCCNC[C@H](O)c3cccc(NS(=O)(=O)c4ccccc4F)c3)ccc12 [ex5, (R)-2-fluoro-N-(3-(1-hydroxy-2-(2-(3-methoxyindazol-6-yloxy)ethylamino)ethyl)phenyl)benzenesulfonamide]	0	2	2	2	2	90	90	5	5.1 ± 2.4	0					number of experimental animals matching Score 0.5 [2, 8]: 2; number of experimental animals matching Score 0.5 [2, 10]: 2; number of experimental animals matching Score 0.5 [2, 12]: 2; number of experimental animals matching Score 0.5 ([2]; 10 mg/kg i.v., n=4, observation time 60 min): 2
COc1n[nH]c2cc(OCCNC[C@H](O)c3cccc(NS(=O)(=O)c4cccs4)c3)ccc12 [ex2, (R)—N-(3-(1-hydroxy-2-(2-(3-methoxyindazol-6-yloxy)ethylamino)ethyl)phenyl)thiophene-2-sulfonamide]	3					109	3.5	6		0					increase in MBP (%) [5, 15]: 4.9 ± 0.9%
O=S(=O)(Nc1cccc([C@@H](O)CNCCOc2ccc3c(C4CC4)n[nH]c3c2)c1)C1CC1 [ex212]	15	4	4	4	4	95	29	6	2.1 ± 1.7	0					
COc1n[nH]c2cc(OCCNC[C@H](O)c3cccc(NS(=O)(=O)c4ccsc4)c3)ccc12 [ex46, (R)-N-(3-(1-hydroxy-2-(2-(3-methoxyindazol-6-yloxy)-ethylamino)ethyl)phenyl)thio-phene-3-sulfonamide]							2.4				−2	78	5	0	number of experimental animals matching Score 0 (no piloerection) ([2]; in vivo, iv, 10 mg/kg): 4; increase in MBP (%) ([5]; rat, in vivo, iv, 3 mg/kg): 5.6 ± 1.1%
Cc1n[nH]c2cc(OCCNC[C@H](O)c3cccc(NS(=O)(=O)c4cnn(C)c4)c3)ccc12 [ex79, (R)-N-(3-(1-hydroxy-2-(2-(3-methylindazol-6-yloxy)ethylamino)ethyl)phenyl)-1-methyl-pyrazole-4-sulfonamide]	7	3	3	3	4	84	54	7	4.2 ± 1.8	0					number of experimental animals matching Score 0.5 [2, 8]: 1; number of experimental animals matching Score 0.5 [2, 10]: 1; number of experimental animals matching Score 0.5 [2, 12]: 1
COc1n[nH]c2cc(OCCNC[C@H](O)c3cccc(NS(=O)(=O)c4cccs4)c3)ccc12 [ex45, (R)-N-(3-(1-hydroxy-2-(2-(3-methoxyindazol-6-yloxy)-ethylamino)ethyl)phenyl)thio-phene-2-sulfonamide]							2.4				2	80	9	0	number of experimental animals matching Score 0 (no piloerection) ([2]; in vivo, iv, 10 mg/kg): 1; increase in MBP (%) ([5]; rat, in vivo, iv, 3 mg/kg): 3.9 ± 2.1%
COc1n[nH]c2cc(OCCNC[C@H](O)c3cccc(NS(=O)(=O)c4cccc(N)c4)c3)ccc12 [ex41, (R)-3-amino-N-(3-(1-hydroxy-2-(2-(3-methoxyindazol-6-yloxy)ethylamino)ethyl)phenyl) benzenesulfonamide]							0.21		5.7 ± 0.8		5	76	12	0	
COc1n[nH]c2cc(OCCNC[C@H](O)c3cccc(NS(=O)(=O)c4ccsc4)c3)ccc12 [ex11, (R)-N-(3-(1-hydroxy-2-(2-(3-methoxyindazol-6-yloxy)ethylamino)ethyl)phenyl) thiophene-3-sulfonamide]	3					115	3.2	3		0					increase in MBP (%) [5, 15]: 6.1 ± 3.7%
Cc1n[nH]c2cc(OCCNC[C@H](O)c3cccc(NS(=O)(=O)c4cc(N)ccc4F)c3)ccc12 [ex61]	-3	4	4	4	4	64	0.2	17	4.7 ± 1.2	0					
Cc1n[nH]c2cc(OCCNC[C@H](O)c3cccc(NS(=O)(=O)c4cn[nH]c4)c3)ccc12 [ex82, (R)-N-(3-(1-hydroxy-2-(2-(3-methylindazol-6-yloxy)ethylamino)ethyl)phenyl)py-razole-4-sulfonamide]	2					71	16	7	5.7 ± 0.8	13					
